Active and inactive are the calls of the source.
Key:
[1] = biological target: Protein-tyrosine kinase 2-beta (Homo sapiens, UniProt Q14289);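 also: potency of inhibitors of PYK2 kinase phosphorylation of poly-GT substrate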
[2] = biological target: T1, Replicative DNA helicase DnaB (Mycobacterium tuberculosis, UniProt P9WMR3); test: DnaB intein splicing inhibitors, dose response, biochemical, cell-free fluorescence (AID 449749); assay type: functional
T1 sequence (P9WMR3 whole entry): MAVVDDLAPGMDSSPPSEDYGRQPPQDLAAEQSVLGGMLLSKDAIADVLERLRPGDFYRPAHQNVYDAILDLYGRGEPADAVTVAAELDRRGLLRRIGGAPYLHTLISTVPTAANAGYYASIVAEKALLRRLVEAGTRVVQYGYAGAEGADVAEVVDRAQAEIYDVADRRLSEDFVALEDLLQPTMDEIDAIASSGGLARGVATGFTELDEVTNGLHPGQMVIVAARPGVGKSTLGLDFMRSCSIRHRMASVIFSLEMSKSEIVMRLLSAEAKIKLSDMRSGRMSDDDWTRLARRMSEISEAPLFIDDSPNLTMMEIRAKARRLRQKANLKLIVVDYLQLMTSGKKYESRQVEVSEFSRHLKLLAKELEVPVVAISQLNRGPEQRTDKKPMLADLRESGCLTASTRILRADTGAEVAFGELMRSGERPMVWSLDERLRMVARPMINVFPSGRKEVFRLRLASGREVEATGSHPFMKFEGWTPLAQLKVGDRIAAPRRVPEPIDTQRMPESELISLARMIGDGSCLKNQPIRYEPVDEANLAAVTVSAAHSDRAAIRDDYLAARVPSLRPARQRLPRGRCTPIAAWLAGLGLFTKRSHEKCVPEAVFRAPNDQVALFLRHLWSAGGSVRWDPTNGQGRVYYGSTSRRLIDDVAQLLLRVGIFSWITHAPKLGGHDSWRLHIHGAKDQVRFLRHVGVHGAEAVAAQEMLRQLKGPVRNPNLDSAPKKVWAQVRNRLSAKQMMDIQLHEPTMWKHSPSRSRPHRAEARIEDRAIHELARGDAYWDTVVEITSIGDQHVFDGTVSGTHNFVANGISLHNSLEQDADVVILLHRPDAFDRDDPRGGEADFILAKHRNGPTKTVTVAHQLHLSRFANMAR

[3] = biological target: T2, Apoptotic protease-activating factor 1 (Homo sapiens, UniProt O14727); assay type: functional
T2 sequence (O14727 whole entry): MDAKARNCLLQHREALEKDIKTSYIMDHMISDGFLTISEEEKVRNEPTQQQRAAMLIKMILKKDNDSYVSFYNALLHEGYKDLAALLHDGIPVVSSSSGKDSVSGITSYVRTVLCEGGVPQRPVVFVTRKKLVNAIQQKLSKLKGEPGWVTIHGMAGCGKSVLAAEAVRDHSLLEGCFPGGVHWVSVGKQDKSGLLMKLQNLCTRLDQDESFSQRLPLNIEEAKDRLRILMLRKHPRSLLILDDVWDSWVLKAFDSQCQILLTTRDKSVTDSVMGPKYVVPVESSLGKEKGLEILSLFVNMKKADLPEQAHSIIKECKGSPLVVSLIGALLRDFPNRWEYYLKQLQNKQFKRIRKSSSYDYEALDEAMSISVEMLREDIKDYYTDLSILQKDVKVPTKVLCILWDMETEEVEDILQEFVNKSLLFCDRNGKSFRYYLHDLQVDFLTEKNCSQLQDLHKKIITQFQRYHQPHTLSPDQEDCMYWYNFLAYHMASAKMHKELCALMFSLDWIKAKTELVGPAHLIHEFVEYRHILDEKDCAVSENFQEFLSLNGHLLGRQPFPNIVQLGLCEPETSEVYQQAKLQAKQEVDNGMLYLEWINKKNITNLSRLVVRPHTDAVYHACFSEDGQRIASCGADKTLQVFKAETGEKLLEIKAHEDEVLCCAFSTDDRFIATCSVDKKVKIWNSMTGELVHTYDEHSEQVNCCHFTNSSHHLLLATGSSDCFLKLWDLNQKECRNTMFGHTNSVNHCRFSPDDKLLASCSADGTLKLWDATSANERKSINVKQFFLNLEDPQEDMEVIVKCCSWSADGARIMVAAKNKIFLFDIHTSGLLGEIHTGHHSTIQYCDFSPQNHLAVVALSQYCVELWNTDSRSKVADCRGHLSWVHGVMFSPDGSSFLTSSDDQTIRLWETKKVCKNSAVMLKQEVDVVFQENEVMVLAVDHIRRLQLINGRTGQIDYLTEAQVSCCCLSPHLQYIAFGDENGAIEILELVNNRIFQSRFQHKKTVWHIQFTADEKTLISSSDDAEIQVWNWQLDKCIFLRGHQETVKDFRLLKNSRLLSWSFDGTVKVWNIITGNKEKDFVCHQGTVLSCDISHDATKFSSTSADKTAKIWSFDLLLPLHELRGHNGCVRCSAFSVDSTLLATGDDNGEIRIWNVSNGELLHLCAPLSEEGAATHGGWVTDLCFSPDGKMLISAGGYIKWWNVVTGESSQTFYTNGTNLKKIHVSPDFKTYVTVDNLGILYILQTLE

[4] = biological target: T3, Protein RecA (Mycobacterium tuberculosis, UniProt P9WHJ3); test: Fluorescence Cell-Free Homogeneous Dose Retest to Identify Inhibitors of RecA-Intein Splicing Activity. [Related pubchem assays (depositor defined):AID2097, AID2223, AID489010, AID492950]; assay type: functional
T3 sequence (P9WHJ3 whole entry): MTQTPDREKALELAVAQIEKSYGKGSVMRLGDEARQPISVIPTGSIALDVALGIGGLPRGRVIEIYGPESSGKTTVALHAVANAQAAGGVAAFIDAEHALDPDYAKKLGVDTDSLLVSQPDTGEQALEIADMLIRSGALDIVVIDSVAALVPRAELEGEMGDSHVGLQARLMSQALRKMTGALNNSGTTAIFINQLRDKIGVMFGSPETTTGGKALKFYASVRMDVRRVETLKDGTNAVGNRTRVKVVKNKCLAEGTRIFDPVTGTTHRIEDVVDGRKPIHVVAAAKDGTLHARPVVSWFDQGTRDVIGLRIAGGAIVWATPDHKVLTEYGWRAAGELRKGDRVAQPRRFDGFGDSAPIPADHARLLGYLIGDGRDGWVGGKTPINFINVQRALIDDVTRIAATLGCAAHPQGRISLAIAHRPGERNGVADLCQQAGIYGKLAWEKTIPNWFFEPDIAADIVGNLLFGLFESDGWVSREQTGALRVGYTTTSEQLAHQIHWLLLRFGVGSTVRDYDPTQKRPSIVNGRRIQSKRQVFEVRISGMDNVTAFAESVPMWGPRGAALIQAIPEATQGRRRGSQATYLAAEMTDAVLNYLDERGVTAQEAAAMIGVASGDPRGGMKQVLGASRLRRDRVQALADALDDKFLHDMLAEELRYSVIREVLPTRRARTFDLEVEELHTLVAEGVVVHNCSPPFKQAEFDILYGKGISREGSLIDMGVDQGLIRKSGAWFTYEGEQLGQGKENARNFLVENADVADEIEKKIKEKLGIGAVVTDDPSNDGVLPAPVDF

[5] = biological target: T4, Sentrin-specific protease 8 (Homo sapiens, UniProt Q96LD8); assay type: functional
T4 sequence (Q96LD8 whole entry): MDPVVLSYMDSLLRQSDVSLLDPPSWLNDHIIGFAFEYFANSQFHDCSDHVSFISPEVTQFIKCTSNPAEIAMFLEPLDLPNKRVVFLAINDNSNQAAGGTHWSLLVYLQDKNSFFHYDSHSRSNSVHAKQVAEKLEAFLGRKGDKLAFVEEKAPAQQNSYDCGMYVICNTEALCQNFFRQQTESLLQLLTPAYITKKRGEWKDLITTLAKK

[6] = biological target: T4, Sentrin-specific protease 8; assay type: functional; remark: listed apart in the source
[7] = HPDE-C7 pancreatic duct cell viability loss – fluorescence, HTS (AID 430); assay type: functional, cell-based; settings: Homo sapiens
[8] = viability loss of HPDE-C7K cells – cell-based, fluorescence, HTS, primary screen (AID 431); assay type: functional; settings: Homo sapiens

Chain of Protein-tyrosine kinase 2-beta (Q14289 whole entry): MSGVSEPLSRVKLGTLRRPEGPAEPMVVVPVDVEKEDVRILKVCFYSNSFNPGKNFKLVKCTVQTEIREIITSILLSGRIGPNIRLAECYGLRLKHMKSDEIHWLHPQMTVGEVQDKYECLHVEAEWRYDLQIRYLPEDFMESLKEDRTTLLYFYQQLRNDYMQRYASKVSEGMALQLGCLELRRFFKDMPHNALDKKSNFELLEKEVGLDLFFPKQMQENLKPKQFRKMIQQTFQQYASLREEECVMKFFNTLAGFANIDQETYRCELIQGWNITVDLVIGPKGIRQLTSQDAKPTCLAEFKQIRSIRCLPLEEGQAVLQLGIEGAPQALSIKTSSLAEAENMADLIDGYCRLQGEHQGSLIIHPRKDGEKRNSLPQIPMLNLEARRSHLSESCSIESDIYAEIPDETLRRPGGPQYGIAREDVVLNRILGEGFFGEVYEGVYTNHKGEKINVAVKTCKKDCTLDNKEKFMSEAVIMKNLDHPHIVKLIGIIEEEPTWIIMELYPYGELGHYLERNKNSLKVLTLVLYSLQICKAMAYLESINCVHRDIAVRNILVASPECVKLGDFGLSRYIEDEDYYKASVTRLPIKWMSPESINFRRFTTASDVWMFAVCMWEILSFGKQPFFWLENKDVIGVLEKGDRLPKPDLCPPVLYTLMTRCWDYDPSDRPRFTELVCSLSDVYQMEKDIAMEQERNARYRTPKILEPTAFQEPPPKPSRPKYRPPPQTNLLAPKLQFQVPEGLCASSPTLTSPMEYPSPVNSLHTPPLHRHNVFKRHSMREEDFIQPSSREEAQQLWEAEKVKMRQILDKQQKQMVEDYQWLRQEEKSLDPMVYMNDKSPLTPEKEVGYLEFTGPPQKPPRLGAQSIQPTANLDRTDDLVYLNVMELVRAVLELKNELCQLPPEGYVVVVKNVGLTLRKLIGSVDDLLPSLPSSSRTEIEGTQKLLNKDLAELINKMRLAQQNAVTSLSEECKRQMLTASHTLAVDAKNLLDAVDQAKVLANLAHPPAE

Row | Structure (SMILES) | IC50 [1] | AC50 [2] | IC50 [3] | EC50 [4] | IC50 [5] | IC50 [6] | EC50 [7] | EC50 [8]
1 | O=C1Cc2ccccc2C(=O)N1CCc1ccccc1 | > 69.5 µM (not active) | 2.17 µM (active) | 4.03 µM (active) | 2.99 µM (active) | 2.89 µM (active) | 0.148 µM (active) |  | 
2 | COCCNC(=O)c1c(N)n(CCC2=CCCCC2)c2nc3ccccc3nc12 |  |  |  |  |  |  | > 20 µM (not active) | > 20 µM (not active)
